According to patent US4021481A, “Amido derivatives of 2,4,6-triiodobenzoic acids containing at least one N-hydroxyalkyl and at least two hydroxyl groups” (Nyegaard & Co. A/S, priority 1969, dated 1977):

Tests used:
[1] = Osmolality of aqueous solution; type: physicochemical; details: 37° C.; 300 mg I/ml
Protocol: As indicated above, the compounds according to the invention are of low osmolality as compared to conventional ionic contrast agents and many of the compounds show even lower osmolality values than would have been expected. The observed osmolality in each case would be expected to be about 0.8 mol/kg but compounds 3, 33, 35, 44 and 11 identified in Table I have shown osmolality values of 0.47, 0.48, 0.61, 0.53 and 0.48 mol/kg respectively at 37° C. (300 mg I ml). The last two compounds in Table 2, which are ionic compounds shown for comparison, have osmolality values of about 1.6 mol/kg.

Solubility in water = type: physicochemical; details: water, room temperature; read-out: Solubility in water at room temperature (class)
mice [2] = experiment: Intracerebral toxicity in mice (LD50); type: in vivo; details: 300 mgI/ml
Text: (§1) As indicated above, the new non-ionic compounds according to the invention have shown markedly low levels of toxicity, especially in intracerebral tests. […] It will be seen that all the new compounds listed are very much better than the known compounds in the intracerebral test.
(§2) Intravenous and Intracerebral Toxicity
(§3) Most of the compounds were so inert that it was not physically possible to inject sufficient substance to kill 50% of the mice and in such cases only a minimum value can be given for the LD50.

mice [3] = experiment: Intravenous toxicity in mice (LD50); type: in vivo; details: concentration administered 300 mgI/ml
Text: as §1, §2, §3

Viscosity = type: physicochemical; details: 20° C.; 300 mgI/ml
Text: However, the preferred compounds listed above in relation to the myelographic field are also very useful in cardiovascular visualisation due to their extremely good tolerance.

[4] = subarachnoideal space; in words; cited from earlier work

Compound	Osmolality [1] [mol/kg]	solubility (Solubility in water) [mg/mL]	Intracerebral LD50 (mice [2]; dose 0.05 ml/20 g mouse) [mgI/kg]	Intravenous LD50 (mice [3]) [mgI/kg]	Viscosity (Viscosity) [cp]	Intracerebral LD50 (mice [2]; dose 0.10 ml/20 g mouse)	Absorption [4]	Toxicity in use [4]
CC(=O)Nc1c(I)c(C(=O)N(C)C[C@H](O)[C@@H](O)[C@H](O)[C@H](O)CO)c(I)c(N(C)C(C)=O)c1I [Compound 3, N-(N-methyl-3,5-diacetamido-2,4,6-triiodobenzoyl)-N-methyl glucamine]	0.47	> 500	> 750	6000	–	–	–	–
CC(=O)Nc1c(I)c(C(=O)N(C)CC(O)CO)c(I)c(C(=O)N(C)CC(O)CO)c1I (centres unmarked) [Compound 9, 3,5-Bis-[N-(2,3-dihydroxypropyl)-N-methylcarbomoyl]-2,4,6-triiodoacetanilide]	–	> 500	–	13500	7.1	about 1500 mgI/kg	–	–
CC(=O)Nc1c(I)c(C(=O)N[C@H]2C(O)O[C@H](CO)[C@@H](O)[C@@H]2O)c(I)c(N(C)C(C)=O)c1I (some centres unmarked) [Compound 11, N-(N-methyl-3,5-diacetamido-2,4,6-triiodobenzoyl)-glucosamine]	0.48	> 500	–	15000	–	> 1500 mgI/kg	–	–
CC(=O)Nc1c(I)c(C(=O)NC[C@H](O)[C@@H](O)[C@H](O)[C@H](O)CO)c(I)c(N(C)C(C)=O)c1I [Compound 33, N-(N-methyl-3,5-diacetamido-2,4,6-triiodobenzoyl)-D-glucamine]	0.48	> 500	> 750	14250	–	> 1500 mgI/kg	–	–
CC(=O)N(CCO)c1c(I)c(C(=O)N(C)CC(O)CO)c(I)c(N(CCO)C(C)=O)c1I (centres unmarked) [Compound 44]	0.53	> 500	> 750	–	–	> 1500 mgI/kg	–	–
O=S(=O)(O)CI [iodomethane sulphonate]	–	–	–	–	–	–	quite rapidly absorbed	too toxic for cisternography, ventriculography and cervical or thoracic myelography
